In the NIST ThermoML archive (doi:10.1021/je100231g):
“And” between values parts separate entries of the source, which are not always exact repeats. Equal values may be shown once.

Settings: Liquid, Gas Saturation Method

CCCCOC(=O)CCCC(=O)OCCCC [dibutyl pentanedioate]
Settings	vapor or sublimation pressure
317.5 K	0.00064 kPa
318.3 K	0.0007 kPa
322.4 K	0.00103 kPa
323.4 K	0.00114 kPa and 0.00113 kPa
325.4 K	0.00132 kPa
326.5 K	0.00145 kPa
328.4 K	0.00179 kPa and 0.00173 kPa
330.6 K	0.0021 kPa
331.5 K	0.00229 kPa
333.5 K	0.00273 kPa
334.6 K	0.00306 kPa
334.7 K	0.00298 kPa
337.6 K	0.00375 kPa
338.6 K	0.00404 kPa
340.5 K	0.00475 kPa
343.3 K	0.006 kPa
346.6 K	0.00782 kPa
349.6 K	0.00973 kPa
350.3 K	0.0103 kPa
352.5 K	0.0121 kPa
354.7 K	0.0145 kPa
357.5 K	0.0177 kPa
360.6 K	0.0213 kPa
363.4 K	0.026 kPa
366.4 K	0.0318 kPa
369.5 K	0.0403 kPa

CCOC(=O)CC(=O)OCC [diethyl 1,3-propanedioate]
Settings	vapor or sublimation pressure [kPa]
283.8 K	0.00689
286.2 K	0.00858
289.2 K	0.0115
292.3 K	0.015
295.2 K	0.0193
298.2 K	0.0251
301.3 K	0.0321
304.2 K	0.0405
304.7 K	0.0428
307.3 K	0.0513
310.2 K	0.0646
313.3 K	0.0814
316.3 K	0.1005

CCOC(=O)CCC(=O)OCC [diethyl butanedioate]
Settings	vapor or sublimation pressure
290.2 K	0.00495 kPa
290.5 K	0.00504 kPa
293.5 K	0.00678 kPa
296.4 K	0.00861 kPa
301.4 K	0.0134 kPa
306.4 K	0.0208 kPa
311.4 K	0.0313 kPa
313.4 K	0.035 kPa
316.4 K	0.0455 kPa
318.4 K	0.0503 kPa
321.4 K	0.0661 kPa
323.5 K	0.0777 kPa
326.5 K	0.0941 kPa and 0.0963 kPa
328.5 K	0.1125 kPa
331.4 K	0.133 kPa
331.6 K	0.1351 kPa
333.6 K	0.1517 kPa
336.5 K	0.1864 kPa
339.4 K	0.2221 kPa
342.4 K	0.2658 kPa
345.5 K	0.3425 kPa

CCOC(=O)C(=O)OCC [diethyl ethanedioate]
Settings	vapor or sublimation pressure [kPa]
283.6 K	0.0164
288.5 K	0.0256
293.4 K	0.0392
298.3 K	0.0571
303.3 K	0.0814
308.4 K	0.1254
311.3 K	0.1509
313.5 K	0.175
316.4 K	0.2075
318.3 K	0.2434
321.4 K	0.2972
325.4 K	0.3834
329.5 K	0.4832
333.5 K	0.6275

CCOC(=O)CCCC(=O)OCC [diethyl glutarate]
Settings	vapor or sublimation pressure [kPa]
298.3 K	0.00352
303.4 K	0.00575
308.6 K	0.00877
311.2 K	0.0108
313.5 K	0.0134
316.2 K	0.0161
318.2 K	0.0185
318.5 K	0.02
322.2 K	0.0254
323.3 K	0.0277
328.2 K	0.0405
333.2 K	0.0601
338.2 K	0.0874
343.2 K	0.1236
347.9 K	0.1725

CCOC(=O)CCCCC(=O)OCC [diethyl hexanedioate]
Settings	vapor or sublimation pressure [kPa]
303.5 K	0.0022
308.2 K	0.00343
313.3 K	0.00523
318.2 K	0.00793
323.1 K	0.0118
328.2 K	0.0185
329.6 K	0.0209
333.2 K	0.0273
335.2 K	0.0323
338.2 K	0.039
340.2 K	0.0462
343.2 K	0.0561
346.2 K	0.0698
349.1 K	0.0851
352.2 K	0.1061

CCCOC(=O)CC(=O)OCCC [dipropyl 1,3-propanedioate]
Settings	vapor or sublimation pressure [kPa]
293.3 K	0.00356
298.3 K	0.00582
299.4 K	0.00652
303.2 K	0.00897
307.3 K	0.0129
308.2 K	0.0135
311.3 K	0.0178
313.3 K	0.0199
315.3 K	0.0245
318.5 K	0.0296
319.4 K	0.0332
323.4 K	0.0426
328.5 K	0.0622
333.5 K	0.089
336.4 K	0.1095
338.5 K	0.13

CCCOC(=O)CCCCC(=O)OCCC [dipropyl hexanedioate]
Settings	vapor or sublimation pressure [kPa]
318.8 K	0.00173
321.7 K	0.00222
323.5 K	0.0026
327.4 K	0.00367
333.2 K	0.00602
336.1 K	0.00765
339.1 K	0.00972
342.1 K	0.0122
345.5 K	0.0152
348.3 K	0.0196
351.5 K	0.0253
354.2 K	0.0306
357.1 K	0.0373
361.2 K	0.0485
365.3 K	0.0639

CCCOC(=O)CCCC(=O)OCCC [pentanedioic acid, dipropyl ester]
Settings	vapor or sublimation pressure [kPa]
313.3 K	0.00276
316.4 K	0.00359
318.5 K	0.00444
319.4 K	0.00478
322.5 K	0.00609
323.5 K	0.00637
325.4 K	0.00778
328.5 K	0.01
329.5 K	0.0109
331.4 K	0.0128
333.6 K	0.0149
336.4 K	0.0184
338.5 K	0.022
341.4 K	0.0271
343.6 K	0.031
346.4 K	0.0385
348.4 K	0.0432
350.5 K	0.0504
353.5 K	0.0628
